Test results: publication PMC11254100 (Angewandte Chemie (International ed. in English), 2024)

Tested on: anti-HA mAb clone 12ca5
Format: binding

Substance	enrichment in affinity selection
cyclo(GDVGPDAYDYA)	enriched
cyclo(GDVWALYASYA)	not enriched in the selection
cyclo(GDAGPYDADYA)	enriched
